Tests used:
Assay in all cases: Test B pre-/postemergence plant response
Type in all cases: in vivo
[1] = system: downy bromegrass (Bromus tectorum); details: for Bromegrass, Downy plant response rating (0 to 100 scale): 62 g ai/ha, postemergence, 0 is no effect, 100 is complete control; for Plant response rating, Bromegrass, Downy: Postemergence
How it was run: (§1)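 Seeds were sown in loam soil/sand blend and treated preemergence with compound in non-phytotoxic solvent mixture containing surfactant; postemergence sprays, same formulation, went onto plants 2 to 18 cm (1- to 4-leaf stage) in peat-based planting medium. Greenhouse 13 to 15 days, then visual rating versus untreated controls, 0 (no effect) to 100 (complete control).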

[2] = system: giant foxtail (Setaria faberii); details: Postemergence
How it was run: as §1

[3] = system: goosegrass (Eleusine indica); details: Postemergence
How it was run: as §1

[4] = system: green foxtail (Setaria viridis); details: Postemergence
How it was run: as §1

[5] = system: johnsongrass (Sorghum halepense); details: Postemergence
How it was run: as §1

kochia (Kochia scoparia) = details: Postemergence
How it was run: as §1

[6] = system: lambsquarters (Chenopodium album); details: Postemergence
How it was run: as §1

[7] = system: large crabgrass (Digitaria sanguinalis); details: Postemergence
How it was run: as §1

[8] = system: pigweed (Amaranthus retroflexus); details: Postemergence
How it was run: as §1

[9] = system: velvetleaf (Abutilon theophrasti); details: Postemergence
How it was run: as §1

[10] = system: wheat (Triticum aestivum); details: Postemergence
How it was run: as §1

[11] = system: woolly cupgrass (Eriochloa villosa); details: Postemergence
How it was run: as §1

[12] = system: yellow nutsedge (Cyperus esculentus); details: Postemergence
How it was run: as §1

[13] = 31 g ai/ha, 0 to 100 scale (0 no effect, 100 complete control)
[14] = 125 g ai/ha, scale 0 to 100 (0 no effect, 100 complete control)
[15] = 250 g ai/ha, scale 0 to 100 (0 no effect, 100 complete control), 13 to 15 days

## Cc1ccc(F)cc1-n1c(-c2cccc(Cl)c2)ncc(C(=O)C2=C(O)CCCC2=O)c1=O [Compound 157]
[1]; 13 to 15 days
  Bromegrass, Downy plant response rating (0 to 100 scale): 40
[1]; [13]
  Plant response rating, Bromegrass, Downy: 40
[1]; [14]
  Plant response rating, Bromegrass, Downy: 60
[1]; [15]
  Plant response rating, Bromegrass, Downy: 65
[2]; [13]
  Plant response rating, Foxtail, Giant: 98
[2]; [14]
  Plant response rating, Foxtail, Giant: 100
[2]; [15]
  Plant response rating, Foxtail, Giant: 100
[3]; [13]
  Plant response rating, Goosegrass: 85
[3]; [14]
  Plant response rating, Goosegrass: 98
[3]; [15]
  Plant response rating, Goosegrass: 100
[4]; [13]
  Plant response rating, Foxtail, Green: 70
[4]; [14]
  Plant response rating, Foxtail, Green: 85
[4]; [15]
  Plant response rating, Foxtail, Green: 95
[5]; [13]
  Plant response rating, Johnsongrass: 70
[5]; [14]
  Plant response rating, Johnsongrass: 100
[5]; [15]
  Plant response rating, Johnsongrass: 100
Kochia (Kochia scoparia); [13]
  Plant response rating, Kochia: 0
Kochia (Kochia scoparia); [14]
  Plant response rating, Kochia: 10
Kochia (Kochia scoparia); [15]
  Plant response rating, Kochia: 45
[6]; [13]
  Plant response rating, Lambsquarters: 98
[6]; [14]
  Plant response rating, Lambsquarters: 100
[6]; [15]
  Plant response rating, Lambsquarters: 100
[7]; [13]
  Plant response rating, Crabgrass, Large: 80
[7]; [14]
  Plant response rating, Crabgrass, Large: 98
[7]; [15]
  Plant response rating, Crabgrass, Large: 100
[8]; [13]
  Plant response rating, Pigweed: 65
[8]; [14]
  Plant response rating, Pigweed: 90
[8]; [15]
  Plant response rating, Pigweed: 98
[9]; [13]
  Plant response rating, Velvetleaf: 100
[9]; [14]
  Plant response rating, Velvetleaf: 100
[9]; [15]
  Plant response rating, Velvetleaf: 100
[10]; [13]
  Plant response rating, Wheat: 0
[10]; [14]
  Plant response rating, Wheat: 20
[10]; [15]
  Plant response rating, Wheat: 30
[11]; [13]
  Plant response rating, Cupgrass, Woolly: 85
[11]; [14]
  Plant response rating, Cupgrass, Woolly: 98
[11]; [15]
  Plant response rating, Cupgrass, Woolly: 98
[12]; [13]
  Plant response rating, Nutsedge, Yellow: 30
[12]; [14]
  Plant response rating, Nutsedge, Yellow: 40
[12]; [15]
  Plant response rating, Nutsedge, Yellow: 45

## Cc1ccccc1-n1c(-c2cc(F)cc(F)c2)ncc(C(=O)C2=C(O)CCCC2=O)c1=O [Compound 159]
[1]; 8 g ai/ha, 0 to 100 scale
  Plant response rating, Bromegrass, Downy: 15
[1]; 16 g ai/ha, 0 to 100 scale
  Plant response rating, Bromegrass, Downy: 15
[1]; 13 to 15 days
  Bromegrass, Downy plant response rating (0 to 100 scale): 50
[1]; [13]
  Plant response rating, Bromegrass, Downy: 50
[2]; 8 g ai/ha, 0 to 100 scale
  Plant response rating, Foxtail, Giant: 75
[2]; 16 g ai/ha, 0 to 100 scale
  Plant response rating, Foxtail, Giant: 80
[2]; [13]
  Plant response rating, Foxtail, Giant: 85
[3]; 8 g ai/ha, 0 to 100 scale
  Plant response rating, Goosegrass: 70
[3]; 16 g ai/ha, 0 to 100 scale
  Plant response rating, Goosegrass: 80
[3]; [13]
  Plant response rating, Goosegrass: 85
[4]; 8 g ai/ha, 0 to 100 scale
  Plant response rating, Foxtail, Green: 50
[4]; 16 g ai/ha, 0 to 100 scale
  Plant response rating, Foxtail, Green: 80
[4]; [13]
  Plant response rating, Foxtail, Green: 85
[5]; 8 g ai/ha, 0 to 100 scale
  Plant response rating, Johnsongrass: 10
[5]; 16 g ai/ha, 0 to 100 scale
  Plant response rating, Johnsongrass: 45
[5]; [13]
  Plant response rating, Johnsongrass: 45
Kochia (Kochia scoparia); 8 g ai/ha, 0 to 100 scale
  Plant response rating, Kochia: 20
Kochia (Kochia scoparia); 16 g ai/ha, 0 to 100 scale
  Plant response rating, Kochia: 20
Kochia (Kochia scoparia); [13]
  Plant response rating, Kochia: 40
[6]; 8 g ai/ha, 0 to 100 scale
  Plant response rating, Lambsquarters: 90
[6]; 16 g ai/ha, 0 to 100 scale
  Plant response rating, Lambsquarters: 95
[6]; [13]
  Plant response rating, Lambsquarters: 100
[7]; 8 g ai/ha, 0 to 100 scale
  Plant response rating, Crabgrass, Large: 65
[7]; 16 g ai/ha, 0 to 100 scale
  Plant response rating, Crabgrass, Large: 75
[7]; [13]
  Plant response rating, Crabgrass, Large: 80
[8]; 8 g ai/ha, 0 to 100 scale
  Plant response rating, Pigweed: 55
[8]; 16 g ai/ha, 0 to 100 scale
  Plant response rating, Pigweed: 75
[8]; [13]
  Plant response rating, Pigweed: 95
[9]; 8 g ai/ha, 0 to 100 scale
  Plant response rating, Velvetleaf: 98
[9]; 16 g ai/ha, 0 to 100 scale
  Plant response rating, Velvetleaf: 100
[9]; [13]
  Plant response rating, Velvetleaf: 100
[10]; 8 g ai/ha, 0 to 100 scale
  Plant response rating, Wheat: 10
[10]; 16 g ai/ha, 0 to 100 scale
  Plant response rating, Wheat: 35
[10]; [13]
  Plant response rating, Wheat: 40
[11]; 8 g ai/ha, 0 to 100 scale
  Plant response rating, Cupgrass, Woolly: 60
[11]; 16 g ai/ha, 0 to 100 scale
  Plant response rating, Cupgrass, Woolly: 65
[11]; [13]
  Plant response rating, Cupgrass, Woolly: 70
[12]; 8 g ai/ha, 0 to 100 scale
  Plant response rating, Nutsedge, Yellow: 10
[12]; 16 g ai/ha, 0 to 100 scale
  Plant response rating, Nutsedge, Yellow: 20
[12]; [13]
  Plant response rating, Nutsedge, Yellow: 40

— US8952024B2, “Herbicidal pyrimidone derivatives” (E I du Pont de Nemours and Company, priority 2009, dated 2015)
